Laboratory results reported in patent publication US9550000B2, “Compositions, methods, and systems for the synthesis and use of imaging agents” (Lantheus Medical Imaging, Inc., priority 2011, dated 2017).
Counter-ions that a name gives are not always drawn. Like-named read-outs stand apart in the source and are kept apart here.

What was measured:
[1] = Tissue distribution in rats; format: in vivo; settings: bolus iv injection
Method: (§1) Male Sprague Dawley rats (300-500 g, Taconic), and male New Zealand rabbits (3-4 kg, Covance) were used in accordance with our Institutional Animal Care and Use Committee. Rats were anesthetized with sodium pentobarbital (50 mg/kg, i.p.) and the left femoral vein cannulated with PESO tubing for drug injection. Rabbits were pre-sedated with acepromazine (0.75 mg/kg i.m.) then anesthetized with ketamine (40 mg/kg, i.m.) and xylazine (8 mg/kg, i.m); the marginal ear vein was cannulated for drug injection. Additional doses of anesthetics were given as needed.
(§2) After preparation, each animal received a bolus injection of the test agent via the venous catheter. Rats and rabbits were euthanized after the injection and samples of the blood, heart, lung, liver, spleen, kidney, femur and muscle were collected. All samples were weighed and counted for radioactivity (Wallac Wizard 1480, PerkinElmer Life and Analytical Sciences, Shelton, Conn.); net radioactivity administered in each animal was determined by subtracting the residual activity in both the syringe and venous catheter. Tissue uptake of each agent was determined as a percentage of the injected dose per gram tissue (% ID/g).

[2] = molecular target: T1, human norepinephrine transporter (Homo sapiens, UniProt P23975); assay: Norepinephrine transporter binding assay ([3H]desipramine competition, MDCK cell membranes); settings: competition with [3H]desipramine 2 nM, 2 h on ice; read-out: NET Affinity
T1 construct: expressed in transfected cells; host or cells: MDCK cells (membrane preparation)
T1 sequence (P23975 whole entry): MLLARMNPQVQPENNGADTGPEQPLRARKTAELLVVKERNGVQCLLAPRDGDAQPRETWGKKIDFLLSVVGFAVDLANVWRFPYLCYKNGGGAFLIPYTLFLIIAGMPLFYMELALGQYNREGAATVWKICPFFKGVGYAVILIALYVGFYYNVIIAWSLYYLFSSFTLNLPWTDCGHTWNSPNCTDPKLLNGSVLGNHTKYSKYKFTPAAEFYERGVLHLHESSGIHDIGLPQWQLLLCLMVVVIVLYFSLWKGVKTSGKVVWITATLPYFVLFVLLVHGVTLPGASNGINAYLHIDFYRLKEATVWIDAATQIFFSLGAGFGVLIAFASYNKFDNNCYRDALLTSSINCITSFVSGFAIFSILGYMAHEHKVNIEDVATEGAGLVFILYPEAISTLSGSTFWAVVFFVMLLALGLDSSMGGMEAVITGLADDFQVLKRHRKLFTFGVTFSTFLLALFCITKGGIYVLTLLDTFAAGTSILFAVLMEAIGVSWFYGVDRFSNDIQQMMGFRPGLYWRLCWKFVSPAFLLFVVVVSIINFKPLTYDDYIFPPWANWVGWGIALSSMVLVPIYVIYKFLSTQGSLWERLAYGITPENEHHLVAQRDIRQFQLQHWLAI
Method: Individual inhibitors were dissolved in incubation buffer (50 mM Tris-HCl, 10% sucrose, pH 7.4) at appropriate dilutions. The inhibitor solutions were added to the wells of a microtiter plate (40 μL/well) in triplicate. Each well of test agent (and appropriate control wells) was treated with a mixture of MDCK cell membrane preparation (22.4 μg of membrane) expressing human norepinephrine transporter (Bmax=3.7 pmol norepinephrine transporter/mg protein), and [^3H]desipramine (2 nM, 64.8 Ci/mmol) in a total volume of 0.2 mL. The resulting mixtures were incubated for 2 h on ice.
A 96 well GF/C filter plate was presoaked with coating buffer (0.5% polyvinylpyrrolidine and 0.1% Tween 20) for 2 h at room temperature, then washed with incubation buffer (6×0.2 mL). The competition reactions were transferred to the coated plate and filtered. The filter plate was washed (6×0.2 mL) with ice cold wash buffer (50 mM Tris-HCl, 0.9% NaCl, pH 7.4) then dried overnight and treated with 25 μL scintillation fluid for analysis on a plate reader (Microbeta TriLux 1450 LSC and Luminescence counter, Perkin Elmer, Shelton Conn.).

PC-12 cells = assay: PC-12 binding assay (cell uptake with or without desipramine); format: cell-based, rat; settings: 0.1 μCi test agent, 60 min at 37° C.; for PC-12 (% bound) Block: with 1 μM desipramine (nonspecific uptake); for PC-12 (% bound) Control: without desipramine (total uptake)
Method: Rat pheochromocytoma cell line (PC-12) were purchased from the American Type Culture Collection (ATCC) then cultured in collagen-coated flasks (BD Bio Coat Collagen Type 1, BD Biosciences) using a growth media composed of F-12 K media, 2 mM L-glutamine, 15% horse serum, 2.5% fetal bovine serum (FBS) and 1% penicillin-streptomycin.
Prepared PC-12 cells were seeded into 6-well plates at a density of 1×10^6 cells/well with 2 mL of growth media and maintained 24 h at 37° C. under a 5% CO2 atmosphere. The media was exchanged and each well treated with 0.1 μCi test agent, with or without 1 μM desipramine. The resulting mixture was incubated for 60 min at 37° C. and 5% CO2 then centrifuged at 500×g for 3 min and washed with PBS buffer. Radioactivity associated with the cells was then measured, and total uptake determined in the wells without desipramine; nonspecific uptake was measured in the associated wells containing desipramine. The specific NET mediated cell uptake is calculated as percent total uptake minus percent nonspecific uptake.

[3] = Tissue distribution in rabbits; format: in vivo; settings: bolus iv injection
Method: as §1, §2

[4] = test system: SK-N-SH cells with expression of NAT; assay: Cell uptake comparison in SK-N-SH cells with or without desipramine; format: cell-based, human; settings: for inhibition of cell uptake by blockade of NAT with desipramine: SK-N-SH cells, desipramine 1 μM
Method: Imaging Agent-1 cell uptake in comparison with ^3H-NA and ^123I-MIBG was assayed in human neuroblastoma cells (SK-N-SH, ATCC) with expression of NAT (Buck et al., Cancer Res. 1985; 45(12 Pt 1):6366-70). Cells were prepared in 6-well plates at a density of 1×10^6 cells/well in 2 mL media. Imaging Agent-1, ^3H-NA or ^123I-MIBG at 3.7 kBq was added to each well with or without desipramine (1 μM), a selective NAT inhibitor. In assay with NA, pargyline (10 μM) was included to inhibit monoamine oxidase activity. Following incubation for 60 minutes at 37° C., cells were washed twice with ice-cold phosphate-buffered saline, trypsinized and centrifuged at 1000 g for 3 minutes to collect cell pellet. Radioactivity associated with the cells was measured with a γ-(Wallac Wizard 1480, PerkinElmer) or β-counter (Microbeta TriLux 1450 LSC, PerkinElmer). Each assay was performed in triplicate and the uptake was expressed as a percent of total radioactivity added to the well.

[5] = test system: noradrenaline transporter (NAT) in SK-N-SH cells; assay: Competitive inhibition of Imaging Agent-1 uptake in SK-N-SH cells; format: cell-based, human; settings: non-radioactive competitor 0.1-100 μM, 37° C., 60 minutes, read-out: IC50 for inhibition of Imaging Agent-1 cell uptake
Method: For the competitive inhibition assay, Imaging Agent-1 at 3.7 kBq was incubated in SK-N-SH cells with various concentrations (0.1, 1, 10, or 100 μM) of non-radioactive NA, MIBG or ^19F-Imaging Agent-1 (self) at 37° C. for 60 minutes. Similarly, following the incubation, Imaging Agent-1 cell uptake was determined. The IC50 value of each agent was determined using GraphPad software (v5).

Compound | Rat Blood [1] [% ID/g] | Rat Heart [1] [% ID/g] | Rat Liver [1] [% ID/g] | Rat Lung [1] [% ID/g] | Ki [2] [µM] | PC-12 (% bound) Block (PC-12 cells) [% bound] | PC-12 (% bound) Control (PC-12 cells) [% bound] | Rabbit Blood [3] [% ID/g] | Rabbit Heart [3] [% ID/g] | Rabbit Liver [3] [% ID/g] | Rabbit Lung [3] [% ID/g] | IC50 ([5]; Homo sapiens, 1 h) [µM] | uptake in SK-N-SH cells (percent of total radioactivity added) ([4]; 3.7 kBq, 60 minutes at 37° C., without desipramine) [%] | inhibition of cell uptake by blockade of NAT with desipramine [4] [%] | IC50 [5] [µM]
N=C1NCC(c2ccc(OCCF)cc2)N1 (centres unmarked) [Example 1, 4-(4-(2-fluoroethoxy)phenyl)imidazolidin-2-imine] | 0.18 | 1.03 | 0.15 | 0.24 | 7.27 | 0.30 | 3.1 | – | – | – | – | – | – | – | –
N=C1NCC(c2ccc(OCCF)c(Br)c2)N1 (centres unmarked) [Example 2, 4-(3-bromo-4-(2-fluoroethoxy)phenyl)imidazolidin-2-imine, hydrochloric acid salt] | 0.19 | 1.33 | 0.25 | 0.94 | 11.2 | 0.60 | 3.20 | – | – | – | – | – | – | – | –
N=C(N)NCc1ccc(CF)c(Br)c1 [Example 3, 1-(3-bromo-4-(fluoromethyl)benzyl)guanidine] | 0.35 ± 0.15 | 0.71 ± 0.24 | 0.15 ± 0.03 | 1.12 ± 0.29 | 7.35 | 2.36 | 32.76 | 0.01 | 0.29 | 0.02 | 0.39 | – | – | – | –
N=C(N)NCc1ccc(COCCF)c(Br)c1 [Example 4, 1-(3-bromo-4-((2-fluoroethoxy)methyl)benzyl)guanidine] | 0.13 ± 0.02 | 1.04 ± 0.95 | 0.37 ± 0.24 | 0.34 ± 0.18 | 5.41 | 0.50 | 1.00 | 0.014 | 0.025 | 0.012 | 0.031 | – | – | – | –
N=C(N)NCCc1c[nH]c2ccc(OCCF)cc12 [Example 21, 1-(2-(5-(2-fluoroethoxy)-1H-indol-3-yl)ethyl)guanidine] | 0.41 | 0.35 | 1.01 | 0.38 | 1.19 | 0.10 | 0.10 | – | – | – | – | – | – | – | –
N=C(N)NCc1ccc(OCCC[18F])c(Br)c1 [Imaging Agent-1] | – | – | – | – | – | – | – | – | – | – | – | – | 24.6±9 | 90±3 | –
N=C(N)NCc1cccc(I)c1 [MIBG, meta-iodobenzylguanidine] | – | – | – | – | – | – | – | – | – | – | – | – | – | – | 0.21
N=C(N)NCc1cccc([123I])c1 [^123I-MIBG, ^123I-meta-iodobenzylguanidine, reference compound] | – | – | – | – | – | – | – | – | – | – | – | – | – | 94±2 | –
^3H-noradrenaline [^3H-NA, reference compound] | – | – | – | – | – | – | – | – | – | – | – | – | – | 97±2 | –

Continued, in another order:

Rat Blood [1] [% ID/g] | Rat Heart [1] [% ID/g] | Rat Liver [1] [% ID/g] | Rat Lung [1] [% ID/g] | Ki [2] [µM] | PC-12 (% bound) Block (PC-12 cells) [% bound] | PC-12 (% bound) Control (PC-12 cells) [% bound] | Rabbit Blood [3] [% ID/g] | Rabbit Heart [3] [% ID/g] | Rabbit Liver [3] [% ID/g] | Rabbit Lung [3] [% ID/g] | IC50 ([5]; Homo sapiens, 1 h) [µM] | Compound | uptake in SK-N-SH cells (percent of total radioactivity added) ([4]; 3.7 kBq, 60 minutes at 37° C., without desipramine) [%] | inhibition of cell uptake by blockade of NAT with desipramine [4] [%] | IC50 [5] [µM]
0.69 | 1.23 | 0.26 | 0.59 | 18.7 | 0.90 | 1.00 | – | – | – | – | – | N=C(N)NCc1ccc(CCF)cc1 [Example 5, 1-[4-(2-fluoroethyl)benzyl]guanidine] | – | – | –
0.21 | 1.61 | 0.27 | 0.94 | 17.4 | 0.60 | 1.30 | – | – | – | – | – | N=C(N)NCc1ccc(CCF)c(Br)c1 [Example 8, 1-(3-bromo-4-(2-fluoroethyl)benzyl)guanidine] | – | – | –
0.51 ± 0.11 | 1.74 ± 0.27 | 0.61 ± 0.40 | 2.71 ± 0.51 | 0.12 | 2.70 | 23.90 | 0.04 ± 0.01 | 0.39 ± 0.02 | 0.02 ± 0.00 | 0.39 ± 0.11 | – | N=C(N)NCc1ccc2cc(OCCF)ccc2c1 [Example 11, 1-((6-(2-fluoroethoxy)naphthalen-2-yl)methyl)guanidine] | – | – | –
0.37 ± 0.05 | 1.93 ± 0.11 | 0.18 ± 0.01 | 2.09 ± 0.08 | 0.14 | 0.50 | 5.30 | 0.04 ± 0.02 | 0.29 ± 0.09 | 0.02 ± 0.01 | 0.28 ± 0.17 | – | N=C(N)NCc1ccc2cc(OCCCF)ccc2c1 [Example 12, 1-((6-(3-fluoropropoxy)naphthalen-2-yl)methyl)guanidine] | – | – | –
0.10 ± 0.01 | 1.94 ± 0.16 | 0.21 ± 0.04 | 0.66 ± 0.11 | 3.95 | 1.50 | 2.30 | – | – | – | – | – | N=C(N)NCCc1ccc(CCCF)cc1 [Example 33, 1-(4-(3-fluoropropyl)phenethyl)guanidine] | – | – | –
– | – | – | – | – | – | – | – | – | – | – | 1.09 | NC[C@H](O)c1ccc(O)c(O)c1 [NA, noradrenaline] | – | – | –
